Values quoted from earlier work, collected in US20070218050A1, “Methods for treatment and prevention of otitis media using chemical penetration enhancers to facilitate transmembrane drug delivery into the middle ear” (Piedmont Pharmaceuticals LLC, priority 2005, published 2007).

Columns and labels:
[1] = round window membrane of the inner ear and cochlea; Marsh and Tom 1989
[2] = concentrations at or in excess of 50% v/v, applied to the middle ear; Vassalli et al. 1988

For `CC(O)CO` (centres unmarked) [propylene glycol], the Inner ear ototoxicity [1] is listed as “implicated in inner ear ototoxicity” and the “Damage to the middle ear” value [2] is listed as “produces inflammation-related damage to the middle ear”.
